Common to all, as to format: functional, cell-based
Settings in all cases: Chlorocebus aethiops

Assay [1] has as its system BSC-1. The assay can be described thus: Induction of severe microtubule disruption in african green monkey BSC1 cells at 20 uM after 4 hrs by immunocytochemistry.
Assay [2] has as its system BSC-1. The assay can be described thus: Induction of reduced mitotic index in african green monkey BSC1 cells at 20 uM after 4 hrs by immunocytochemistry.
The test system of assay [3] is BSC-1. The assay can be described thus: Induction of deffects in mitotic spindle in african green monkey BSC1 cells at 20 uM after 4 hrs by immunocytochemistry.

Calls of active or inactive are those of the source. No rule for the calls is given here.

As for `CC(=O)Nc1ccc(Nc2ccnc(Nc3ccc(C(C)(C)C)cc3)n2)cc1`, the result in the assay on BSC-1 [1] was Active.
On to `CC(=O)Nc1ccc(Nc2ccnc(Nc3ccc(Cl)cc3Cl)n2)cc1`, for which the outcome with BSC-1 [1] was Active.
In the case of `OCC1CCCN1c1nccc(Nc2ccc3c(c2)OCO3)n1` (centres undefined), the result with BSC-1 [1], in the assay on BSC-1 [2] and in the assay with BSC-1 [3] was Active.
As to `O=[N+]([O-])c1cnc(Nc2ccc3ncsc3c2)nc1Nc1ccc(Cl)c(Cl)c1`, the result in the assay on BSC-1 [1], in the assay with BSC-1 [2] and in the assay with BSC-1 [3] was Active.
Regarding `CC(=O)Nc1ccc(Nc2ncc([N+](=O)[O-])c(Nc3ccccc3C(N)=O)n2)cc1`, the outcome with BSC-1 [3] was Active.
For `CC(C)(C)c1ccc(Nc2ncc([N+](=O)[O-])c(Nc3ccc(Cl)c(Cl)c3)n2)cc1`, the result with BSC-1 [1], with BSC-1 [2] and in the assay with BSC-1 [3] was Active.
Take `CC(C)(C)c1ccc(Nc2nccc(-n3ccnc3-c3ccccc3)n2)cc1`: in the assay on BSC-1 [3], the outcome was Active.
In the case of `CCCCNc1ncc([N+](=O)[O-])c(Nc2ccc3[nH]ccc3c2)n1`, the result in the assay with BSC-1 [1], with BSC-1 [2] and in the assay on BSC-1 [3] was Active.
With `O=[N+]([O-])c1cnc(NC2CCCC2)nc1Sc1cccc(Cl)c1`, the result in the assay with BSC-1 [1], with BSC-1 [2] and in the assay with BSC-1 [3] was Active.
`CCCCNc1ncc([N+](=O)[O-])c(NC2CCCC2)n1`: the outcome in the assay on BSC-1 [1], in the assay with BSC-1 [2] and in the assay on BSC-1 [3] was Active.
Regarding `CC(=O)Nc1ccc(Nc2ccnc(NCc3cccs3)n2)cc1`, the outcome with BSC-1 [1], in the assay on BSC-1 [2] and with BSC-1 [3] was Active.
With `CC(C)CC(CO)Nc1ncc([N+](=O)[O-])c(Nc2ccc3ncsc3c2)n1` (centres undefined), the result in the assay with BSC-1 [1], in the assay with BSC-1 [2] and with BSC-1 [3] was Active.
`Clc1ccc(Nc2nccc(Nc3ccc4c(c3)OCO4)n2)cc1Cl`: the result in the assay on BSC-1 [1], with BSC-1 [2] and with BSC-1 [3] was Active.
Regarding `CC(C)(C)c1ccc(Nc2ncc([N+](=O)[O-])c(Nc3ccc4ncsc4c3)n2)cc1`, the result in the assay on BSC-1 [3] was Active.
Same read-out and setting: for `O=[N+]([O-])c1cnc(-n2ccnc2-c2ccccc2)nc1Nc1ccc2ncsc2c1` the value was “Active”.
For `O=[N+]([O-])c1cnc(NCc2cccs2)nc1Nc1ccc(Cl)c(Cl)c1`, the outcome in the assay on BSC-1 [1], in the assay on BSC-1 [2] and in the assay with BSC-1 [3] was Active.
Regarding `O=C(c1ccccc1)c1ccccc1Nc1nc(Nc2ccc3c(c2)CCC3)ncc1[N+](=O)[O-]`, the result in the assay with BSC-1 [1], with BSC-1 [2] and in the assay with BSC-1 [3] was Active.
On to `COc1cc(Nc2ncc([N+](=O)[O-])c(Nc3ccc4c(c3)OCO4)n2)cc(OC)c1OC`, for which the result in the assay with BSC-1 [1] was Active.
As to `CC(C)(C)c1ccc(Nc2ncc([N+](=O)[O-])c(NC3CCCC3)n2)cc1`, the result with BSC-1 [1], in the assay on BSC-1 [2] and in the assay with BSC-1 [3] was Active.
`c1ccc2cc(Nc3nccc(Nc4ccc5c(c4)CCC5)n3)ccc2c1`: the result with BSC-1 [1], in the assay on BSC-1 [2] and in the assay on BSC-1 [3] was Active.
With `Clc1ccc(Nc2nccc(Nc3ccc4c(c3)CCC4)n2)cc1Cl`, the result with BSC-1 [3] was Active.
For the molecule `CC(=O)Nc1ccc(Nc2nccc(Nc3ccc4[nH]ccc4c3)n2)cc1`, in the assay with BSC-1 [1], the outcome was Active.
For `CCN(CC)CCCC(C)Nc1ncc([N+](=O)[O-])c(Nc2ccc3ncsc3c2)n1` (centres undefined), the outcome in the assay on BSC-1 [1], in the assay with BSC-1 [2] and in the assay with BSC-1 [3] was Active.
As to `COc1cc(Nc2ncc([N+](=O)[O-])c(Nc3ccccc3C(N)=O)n2)cc(OC)c1OC`, the outcome in the assay on BSC-1 [1] was Active.
Turning to `Cc1cc(Nc2cc(C3CC3)[nH]n2)nc(Nc2ccc(CC#N)cc2)n1`, the outcome with BSC-1 [1] was Active.
As to `O=[N+]([O-])c1cnc(Nc2ccc3[nH]ccc3c2)nc1Nc1ccc2ncsc2c1`, in the assay on BSC-1 [3], the result was Active.
Regarding `CC(C)(Nc1ncc([N+](=O)[O-])c(Nc2ccccc2C(N)=O)n1)c1ccccc1`, in the assay on BSC-1 [1], the outcome was Active.
Consider `CC(=O)Nc1ccc(Nc2ncc([N+](=O)[O-])c(Nc3ccc(Cl)c(Cl)c3)n2)cc1`, for which the result in the assay with BSC-1 [1], in the assay with BSC-1 [2] and with BSC-1 [3] was Active.
In the case of `COc1ccc(Nc2ncc([N+](=O)[O-])c(Nc3ccc4[nH]ccc4c3)n2)cc1`, the result in the assay with BSC-1 [1] was Active.
On to `CC(C)(Nc1ncc([N+](=O)[O-])c(Nc2ccc3ncsc3c2)n1)c1ccccc1`, for which the result in the assay with BSC-1 [1], in the assay on BSC-1 [2] and in the assay with BSC-1 [3] was Active.
As to `CCCCNc1nc(Nc2ccc3ccccc3c2)ncc1[N+](=O)[O-]`, the result with BSC-1 [1], in the assay with BSC-1 [2] and with BSC-1 [3] was Active.
As for `CC(=O)Nc1ccc(Nc2ccnc(Nc3ccc4ccccc4c3)n2)cc1`, the result with BSC-1 [1] was Active.
Take `CN1CCN(c2ccnc(NCc3cccs3)n2)CC1`: the outcome in the assay with BSC-1 [1], in the assay with BSC-1 [2] and with BSC-1 [3] was Active.
Regarding `CCN(CC)CCCC(C)Nc1ncc([N+](=O)[O-])c(NC2CCCC2)n1` (centres undefined), the result with BSC-1 [1], in the assay with BSC-1 [2] and in the assay on BSC-1 [3] was Active.
As to `CCCCNc1ncc([N+](=O)[O-])c(Nc2ccccc2C(=O)c2ccccc2)n1`, the result in the assay on BSC-1 [1], with BSC-1 [2] and in the assay on BSC-1 [3] was Active.
With `NC(=O)c1ccccc1Nc1nc(NCc2cccs2)ncc1[N+](=O)[O-]`, the result with BSC-1 [1], in the assay on BSC-1 [2] and in the assay on BSC-1 [3] was Active.
As to `O=[N+]([O-])c1cnc(Nc2ccc3ccccc3c2)nc1Nc1ccc2ncsc2c1`, the outcome in the assay on BSC-1 [3] was Active.
For `CC(=O)Nc1ccc(Nc2ncc([N+](=O)[O-])c(Nc3ccc4ncsc4c3)n2)cc1`, the outcome in the assay on BSC-1 [1], in the assay on BSC-1 [2] and in the assay on BSC-1 [3] was Active.
Take `O=[N+]([O-])c1cnc(Nc2ccc(Cl)c(Cl)c2)nc1Nc1ccc2ncsc2c1`: in the assay on BSC-1 [3], the result was Active.
For the molecule `O=C(c1ccccc1)c1ccccc1Nc1nc(NCc2cccs2)ncc1[N+](=O)[O-]`, the result in the assay on BSC-1 [2] was Active.
Take `O=[N+]([O-])c1cnc(Cl)nc1NC1CCCC1`: in the assay with BSC-1 [3], the result was Active.
Consider `O=[N+]([O-])c1cnc(Nc2ccc(Cl)c(Cl)c2)nc1Nc1ccc2[nH]ccc2c1`, for which the outcome in the assay with BSC-1 [1], with BSC-1 [2] and with BSC-1 [3] was Active.
Take `CC(=O)Nc1ccc(Nc2nccc(Nc3ccc4c(c3)CCC4)n2)cc1`: the result with BSC-1 [1], in the assay with BSC-1 [2] and with BSC-1 [3] was Active.
With `O=[N+]([O-])c1cnc(NC2CCCCCC2)nc1Nc1ccc2ncsc2c1`, the result with BSC-1 [1], in the assay with BSC-1 [2] and in the assay with BSC-1 [3] was Active.
Consider `O=[N+]([O-])c1cnc(Nc2cccc3ncccc23)nc1Nc1ccc2ncsc2c1`, for which, in the assay with BSC-1 [1], the result was Active.
For the molecule `CN1CCN(c2ccnc(Cl)n2)CC1`, the outcome in the assay with BSC-1 [1], with BSC-1 [2] and in the assay on BSC-1 [3] was Active.
Consider `c1ccc(-c2nccn2-c2ccnc(Nc3ccc4ncsc4c3)n2)cc1`, for which the outcome in the assay with BSC-1 [1] was Active.
`c1cc(Nc2nccc(Nc3ccc4c(c3)CCC4)n2)ccn1`: the outcome in the assay with BSC-1 [1], in the assay with BSC-1 [2] and with BSC-1 [3] was Active.
Turning to `O=C(c1ccccc1)c1ccccc1Nc1nc(NC(CO)Cc2ccccc2)ncc1[N+](=O)[O-]` (centres undefined), in the assay on BSC-1 [3], the result was Active.
`CC(=O)Nc1ccc(Nc2ccnc(Nc3ccc4ncsc4c3)n2)cc1`: the result in the assay on BSC-1 [1] was Active.
In the case of `CC(=O)Nc1ccc(Nc2ccnc(NC(CO)Cc3ccccc3)n2)cc1` (centres undefined), the outcome in the assay on BSC-1 [1], in the assay with BSC-1 [2] and in the assay on BSC-1 [3] was Active.
`O=C(c1ccccc1)c1ccccc1Nc1nc(Nc2ccc3ccccc3c2)ncc1[N+](=O)[O-]`: the outcome in the assay on BSC-1 [1], in the assay on BSC-1 [2] and in the assay on BSC-1 [3] was Active.
For `O=[N+]([O-])c1cnc(NC2CCCCCC2)nc1Nc1ccc(Cl)c(Cl)c1`, the outcome with BSC-1 [1], with BSC-1 [2] and with BSC-1 [3] was Active.
Regarding `CC(=O)Nc1ccc(Nc2ncc([N+](=O)[O-])c(Sc3cccc(Cl)c3)n2)cc1`, the outcome in the assay on BSC-1 [1], with BSC-1 [2] and in the assay on BSC-1 [3] was Active.
Take `CN1CCN(c2ccnc(Sc3cccc(Cl)c3)n2)CC1`: in the assay with BSC-1 [3], the outcome was Active.
On to `CC(=O)Nc1ccc(Nc2ncc([N+](=O)[O-])c(NC3CCCC3)n2)cc1`, for which, in the assay with BSC-1 [2], the outcome was Active.
Turning to `O=C(c1ccccc1)c1ccccc1Nc1nc(NCCCN2CCCC2=O)ncc1[N+](=O)[O-]`, in the assay on BSC-1 [3], the outcome was Active.
On to `CCCCNc1nc(Nc2ccc(NC(C)=O)cc2)ncc1[N+](=O)[O-]`, for which the outcome in the assay on BSC-1 [3] was Active.
Regarding `O=[N+]([O-])c1cnc(Nc2ccncc2)nc1NC1CCCC1`, the outcome with BSC-1 [1] was Active.
Still for that read-out and setting: as for `CN1CCN(c2ccc(Nc3ncc([N+](=O)[O-])c(Nc4ccccc4C(N)=O)n3)cc2)CC1`, the entry is “Active”; as for `c1cc(Nc2ccc3c(c2)OCO3)nc(Nc2ccc3ncsc3c2)n1`, “Active”; as for `CC(C)(C)c1ccc(Nc2ncc([N+](=O)[O-])c(Nc3ccccc3C(N)=O)n2)cc1`, “Active”.
